Measurements as given in PubChem BioAssay AID194 (DTP/NCI, 2004).
Values joined by “and” are separate entries in the source; they are usually repeats but may differ in a detail not shown here. Equal entries are not always repeated. Results filed as inconclusive are left out.

Tested on: BDF1 mice, B16 melanoma s.c., survival/tumor T/C
Assay: NCI In Vivo Anticancer Drug Screen. Data for tumor model B16 Melanoma (subcutaneous) in B6D2F1 (BDF1) mice
Protocol: The antitumor activity of compounds was measured in mice bearing transplantable tumors. Survival or tumor size were measured and the results are expressed as the measurement made in the treated group (T) divided by the measurement made in the vehicle treated control group (C). The tumor model used in this assay is B16 Melanoma (subcutaneous) in B6D2F1 (BDF1) mice

[1] = endpoint: median survival time, dose: 3.12 mg/kg/injection, schedule: Q01DX009 (ip), vehicle: Klucel (hydroxypropylcellulose) (HPC), higher = longer survival
[2] = endpoint: median survival time, dose: 6.25 mg/kg/injection, schedule: Q01DX009 (ip), vehicle: Klucel (hydroxypropylcellulose) (HPC), higher = longer survival
[3] = endpoint: median survival time, dose: 12.5 mg/kg/injection, schedule: Q01DX009 (ip), vehicle: Klucel (hydroxypropylcellulose) (HPC), higher = longer survival
[4] = endpoint: median survival time, dose: 25.0 mg/kg/injection, schedule: Q01DX009 (ip), vehicle: Klucel (hydroxypropylcellulose) (HPC), higher = longer survival
[5] = endpoint: median survival time, dose: 25.0 mg/kg/injection, schedule: Q01DX009 (ip), vehicle: saline with Tween-80, higher = longer survival
[6] = endpoint: median survival time, dose: 50.0 mg/kg/injection, schedule: Q01DX009 (ip), vehicle: saline with Tween-80, higher = longer survival

Cc1c(N)nc([C@H](CC(N)=O)NC[C@H](N)C(N)=O)nc1C(=O)N[C@H](C(=O)N[C@H](C)[C@@H](O)[C@H](C)C(=O)N[C@H](C(=O)NCCc1nc(-c2nc(C(=O)NCCC[S+](C)C)cs2)cs1)[C@@H](C)O)C(OC1OC(CO)C(O)C(O)C1OC1OC(CO)C(O)C(OC(N)=O)C1O)c1cnc[nH]1 (stereo not given in full)
T/C (endpoint: median survival time, dose: 1.0 mg/kg/injection, schedule: Q01DX009 (ip), vehicle: saline, higher = longer survival): 120 % of control
T/C (endpoint: median survival time, dose: 2.0 mg/kg/injection, schedule: Q01DX009 (ip), vehicle: water, higher = longer survival): 152 % of control and 160 % of control
T/C (endpoint: median survival time, dose: 3.0 mg/kg/injection, schedule: Q01DX005 (ip), vehicle: water, higher = longer survival): 118 % of control
T/C (endpoint: median survival time, dose: 3.0 mg/kg/injection, schedule: Q01DX009 (ip), vehicle: saline, higher = longer survival): 119 % of control
T/C (endpoint: median survival time, dose: 3.0 mg/kg/injection, schedule: Q01DX009 (ip), vehicle: water, higher = longer survival): 96 % of control
T/C [1]: 171 % of control
T/C (endpoint: median survival time, dose: 4.0 mg/kg/injection, schedule: Q01DX009 (ip), vehicle: water, higher = longer survival): 165 % of control and 179 % of control
T/C (endpoint: median survival time, dose: 6.0 mg/kg/injection, schedule: Q01DX005 (ip), vehicle: water, higher = longer survival): 118 % of control
T/C (endpoint: median survival time, dose: 6.0 mg/kg/injection, schedule: Q01DX009 (ip), vehicle: saline, higher = longer survival): 121 % of control
T/C (endpoint: median survival time, dose: 6.0 mg/kg/injection, schedule: Q01DX009 (ip), vehicle: water, higher = longer survival): 109 % of control
T/C [2]: 175 % of control
T/C (endpoint: median survival time, dose: 8.0 mg/kg/injection, schedule: Q01DX009 (ip), vehicle: water, higher = longer survival): 162 % of control and 185 % of control
T/C (endpoint: median survival time, dose: 12.0 mg/kg/injection, schedule: Q01DX009 (ip), vehicle: water, higher = longer survival): 112 % of control
T/C [3]: 168 % of control
T/C (endpoint: median survival time, dose: 16.0 mg/kg/injection, schedule: Q01DX009 (ip), vehicle: water, higher = longer survival): 158 % of control (2×) and 159 % of control
T/C (endpoint: median survival time, dose: 16.0 mg/kg/injection, schedule: Q01DX010 (ip), vehicle: water, higher = longer survival): 93 % of control
T/C (endpoint: median survival time, dose: 20.0 mg/kg/injection, schedule: Q01DX009 (ip), vehicle: saline, higher = longer survival): 161 % of control
T/C (endpoint: median survival time, dose: 24.0 mg/kg/injection, schedule: Q01DX009 (ip), vehicle: saline, higher = longer survival): 112 % of control
T/C [4]: 100 % of control
T/C (endpoint: median survival time, dose: 32.0 mg/kg/injection, schedule: Q01DX009 (ip), vehicle: water, higher = longer survival): 171 % of control
T/C (endpoint: median tumor weight (est.), dose: 8.0 mg/kg/injection, schedule: Q01DX009 (ip), vehicle: water, higher = larger tumour): 47 % of control
T/C (endpoint: median tumor weight (est.), dose: 12.0 mg/kg/injection, schedule: Q01DX009 (ip), vehicle: saline, higher = larger tumour): 22 % of control and 43 % of control
T/C (endpoint: median tumor weight (est.), dose: 16.0 mg/kg/injection, schedule: Q01DX009 (ip), vehicle: water, higher = larger tumour): 33 % of control
T/C (endpoint: median tumor weight (est.), dose: 24.0 mg/kg/injection, schedule: Q01DX009 (ip), vehicle: saline, higher = larger tumour): 18 % of control and 27 % of control

COC12C(COC(N)=O)C3=C(C(=O)C(C)=C(N)C3=O)N1CC1C2N1C (stereo not given)
T/C (endpoint: median survival time, dose: 1.0 mg/kg/injection, schedule: Q01DX009 (ip), vehicle: Klucel (hydroxypropylcellulose) (HPC), higher = longer survival): 106 % of control
T/C (endpoint: median survival time, dose: 2.0 mg/kg/injection, schedule: Q01DX009 (ip), vehicle: Klucel (hydroxypropylcellulose) (HPC), higher = longer survival): 91 % of control
T/C (endpoint: median survival time, dose: 8.0 mg/kg/injection, schedule: Q01DX009 (ip), vehicle: Klucel (hydroxypropylcellulose) (HPC), higher = longer survival): 109 % of control

O=[N+]([O-])O.[Ga]
T/C (endpoint: median survival time, dose: 4.0 mg/kg/injection, schedule: Q01DX009 (ip), vehicle: saline, higher = longer survival): 109 % of control
T/C (endpoint: median survival time, dose: 16.0 mg/kg/injection, schedule: Q01DX009 (ip), vehicle: saline, higher = longer survival): 91 % of control
T/C (endpoint: median survival time, dose: 32.0 mg/kg/injection, schedule: Q01DX009 (ip), vehicle: saline, higher = longer survival): 86 % of control
T/C (endpoint: median survival time, dose: 40.0 mg/kg/injection, schedule: Q01DX009 (ip), vehicle: saline, higher = longer survival): 99 % of control
T/C (endpoint: median survival time, dose: 64.0 mg/kg/injection, schedule: Q01DX009 (ip), vehicle: saline, higher = longer survival): 95 % of control
T/C (endpoint: median survival time, dose: 90.0 mg/kg/injection, schedule: Q01DX009 (ip), vehicle: saline, higher = longer survival): 104 % of control
T/C (endpoint: median survival time, dose: 200.0 mg/kg/injection, schedule: Q04DX003 (ip), vehicle: saline, higher = longer survival): 99 % of control
T/C (endpoint: median survival time, dose: 400.0 mg/kg/injection, schedule: Q01DX001 (ip), vehicle: saline, higher = longer survival): 100 % of control
T/C (endpoint: median survival time, dose: 600.0 mg/kg/injection, schedule: Q01DX001 (ip), vehicle: saline, higher = longer survival): 100 % of control

CC(NSc1ccccc1[N+](=O)[O-])C(=O)O (stereo not given)
T/C (endpoint: median survival time, dose: 12.5 mg/kg/injection, schedule: Q01DX009 (ip), vehicle: saline with Tween-80, higher = longer survival): 109 % of control
T/C [5]: 106 % of control
T/C [6]: 89 % of control
T/C (endpoint: median survival time, dose: 100.0 mg/kg/injection, schedule: Q01DX009 (ip), vehicle: saline with Tween-80, higher = longer survival): 122 % of control

Cc1c[n+]2c3ccccc3c3ccccc3c2s1
T/C (endpoint: median survival time, dose: 20.0 mg/kg/injection, schedule: Q01DX009 (ip), vehicle: Klucel (hydroxypropylcellulose) (HPC), higher = longer survival): 121 % of control

O=[N+]([O-])c1ccc(/C=N/c2ncc(Br)s2)o1
T/C (endpoint: median survival time, dose: 1.56 mg/kg/injection, schedule: Q01DX009 (ip), vehicle: Klucel (hydroxypropylcellulose) (HPC), higher = longer survival): 123 % of control
T/C [1]: 92 % of control
T/C (endpoint: median survival time, dose: 3.13 mg/kg/injection, schedule: Q01DX009 (ip), vehicle: Klucel (hydroxypropylcellulose) (HPC), higher = longer survival): 121 % of control
T/C [2]: 110 % of control and 111 % of control
T/C [3]: 114 % of control

CS(=O)(=O)OCCCCOS(C)(=O)=O
T/C [3]: 88 % of control and 100 % of control
T/C [5]: 100 % of control
T/C [6]: 100 % of control
T/C (endpoint: median tumor weight (est.), dose: 12.5 mg/kg/injection, schedule: Q01DX009 (ip), vehicle: saline with Tween-80, higher = larger tumour): 162 % of control
T/C (endpoint: median tumor weight (est.), dose: 25.0 mg/kg/injection, schedule: Q01DX009 (ip), vehicle: Klucel (hydroxypropylcellulose) (HPC), higher = larger tumour): 97 % of control and 83 % of control
T/C (endpoint: median tumor weight (est.), dose: 25.0 mg/kg/injection, schedule: Q01DX009 (ip), vehicle: saline with Tween-80, higher = larger tumour): 88 % of control
T/C (endpoint: median tumor weight (est.), dose: 50.0 mg/kg/injection, schedule: Q01DX009 (ip), vehicle: Klucel (hydroxypropylcellulose) (HPC), higher = larger tumour): 61 % of control
T/C (endpoint: median tumor weight (est.), dose: 50.0 mg/kg/injection, schedule: Q01DX009 (ip), vehicle: saline with Tween-80, higher = larger tumour): 69 % of control

O=P1(NCCCl)OCCCN1CCCl (stereo not given)
T/C (endpoint: median survival time, dose: 300.0 mg/kg/injection, schedule: Q01DX001 (ip), vehicle: saline, higher = longer survival): 154 % of control
T/C (endpoint: median survival time, dose: 460.0 mg/kg/injection, schedule: Q01DX001 (ip), vehicle: saline, higher = longer survival): 150 % of control

CC1(C)N=C(N)N=C(N)N1c1ccc(CCC(=O)Nc2ccc(S(=O)(=O)F)cc2)c(Cl)c1
T/C (endpoint: median survival time, dose: 6.25 mg/kg/injection, schedule: Q01DX009 (ip), vehicle: saline, higher = longer survival): 108 % of control
T/C (endpoint: median survival time, dose: 12.5 mg/kg/injection, schedule: Q01DX009 (ip), vehicle: saline, higher = longer survival): 103 % of control
T/C (endpoint: median survival time, dose: 25.0 mg/kg/injection, schedule: Q01DX009 (ip), vehicle: saline, higher = longer survival): 114 % of control

Nc1nncs1
T/C (endpoint: median survival time, dose: 59.0 mg/kg/injection, schedule: Q01DX009 (ip), vehicle: saline with Tween-80, higher = longer survival): 108 % of control
T/C (endpoint: median survival time, dose: 1200.0 mg/kg/injection, schedule: Q04DX003 (ip), vehicle: saline with Tween-80, higher = longer survival): 121 % of control
T/C (endpoint: median survival time, dose: 1800.0 mg/kg/injection, schedule: Q04DX003 (ip), vehicle: saline with Tween-80, higher = longer survival): 104 % of control
T/C (endpoint: median survival time, dose: 2000.0 mg/kg/injection, schedule: Q01DX001 (ip), vehicle: saline with Tween-80, higher = longer survival): 108 % of control
T/C (endpoint: median survival time, dose: 3000.0 mg/kg/injection, schedule: Q01DX001 (ip), vehicle: saline with Tween-80, higher = longer survival): 113 % of control

CN(C)/N=N/c1nc[nH]c1C(N)=O
T/C [3]: 101 % of control
T/C [4]: 89 % of control
T/C (endpoint: median survival time, dose: 37.5 mg/kg/injection, schedule: Q01DX009 (ip), vehicle: saline with Tween-80, higher = longer survival): 175 % of control
T/C (endpoint: median survival time, dose: 37.5 mg/kg/injection, schedule: Q01DX009 (ip), vehicle: saline, higher = longer survival): 110 % of control
T/C (endpoint: median survival time, dose: 50.0 mg/kg/injection, schedule: Q01DX009 (ip), vehicle: Klucel (hydroxypropylcellulose) (HPC), higher = longer survival): 119 % of control
T/C (endpoint: median survival time, dose: 75.0 mg/kg/injection, schedule: Q01DX009 (ip), vehicle: Klucel (hydroxypropylcellulose) (HPC), higher = longer survival): 160 % of control
T/C (endpoint: median survival time, dose: 75.0 mg/kg/injection, schedule: Q01DX009 (ip), vehicle: saline with Tween-80, higher = longer survival): 156 % of control
T/C (endpoint: median survival time, dose: 75.0 mg/kg/injection, schedule: Q01DX009 (ip), vehicle: saline, higher = longer survival): 113 % of control
T/C (endpoint: median survival time, dose: 100.0 mg/kg/injection, schedule: Q01DX009 (ip), vehicle: Klucel (hydroxypropylcellulose) (HPC), higher = longer survival): 109 % of control
T/C (endpoint: median survival time, dose: 150.0 mg/kg/injection, schedule: Q01DX009 (ip), vehicle: Klucel (hydroxypropylcellulose) (HPC), higher = longer survival): 91 % of control
T/C (endpoint: median survival time, dose: 150.0 mg/kg/injection, schedule: Q01DX009 (ip), vehicle: saline with Tween-80, higher = longer survival): 154 % of control
T/C (endpoint: median tumor weight (est.), dose: 37.0 mg/kg/injection, schedule: Q01DX009 (ip), vehicle: saline with Tween-80, higher = larger tumour): 50 % of control
T/C (endpoint: median tumor weight (est.), dose: 75.0 mg/kg/injection, schedule: Q01DX009 (ip), vehicle: saline with Tween-80, higher = larger tumour): 110 % of control
T/C (endpoint: median tumor weight (est.), dose: 150.0 mg/kg/injection, schedule: Q01DX009 (ip), vehicle: Klucel (hydroxypropylcellulose) (HPC), higher = larger tumour): 59 % of control
T/C (endpoint: median tumor weight (est.), dose: 150.0 mg/kg/injection, schedule: Q01DX009 (ip), vehicle: saline with Tween-80, higher = larger tumour): 42 % of control
T/C (endpoint: median tumor weight (est.), dose: 300.0 mg/kg/injection, schedule: Q01DX009 (ip), vehicle: saline with Tween-80, higher = larger tumour): 43 % of control
